# Results from PubChem BioAssay AID2060896 (Molecular Pharmacology Branch, DTP, NCI, 2025).
# Test system: 941728-121-R-J1-PDC complex spheroid viability
# Assay: Anticancer human tumor 941728-121-R-J1-PDC patient-derived lung adenocarcinoma cell line growth inhibition [RAS]
# Details: for IC50: curve of first compound; for viability, T/C: stronger effect = lower value
# Source text: RAS pathway inhibitors in Combinations in Complex Spheroids
# A high-throughput screen of multi-cell type tumor spheroids was designed to identify active combinations of RAS pathway inhibitors and targeted small molecules. Complex spheroids include a stromal component modeled by human endothelial cells (HUVEC) and fibroblasts modeled by human mesenchymal stem cells (MSCs). The concentration ranges selected for each drug and investigational agent were based upon clinically achievable concentrations if the clinical Cmax of the agent was known.
# Compounds. The drugs and investigational agents: abemaciclib (NSC768073), cobimetinib (NSC768068), divarasib (GDC6063, NSC841802), docetaxel (NSC628503), GDC-1971 (RLY-1971, NSC841576), gemcitabine (NSC613327), inavolisib (NSC800729), ipatasertib (NSC767898), KB-0742 (NSC834161), MRTX-1133 (NSC836407), osimertinib (NSC779217), RMC-4630 (NSC839698), RMC-6236 (NSC851965), RMC-6291 (NSC852671), Ro-3306 (NSC812927), sapanisertib (NSC764658), SN-38 (NSC673596), staurosporine (NSC755774), SY5609 (NSC837396), and tovorafenib (DAY101, NSC766906), were obtained from the National Cancer Institute (NCI) Developmental Therapeutics Program Chemical Repository. The FDA-approved anticancer drug set is available from the NCI Developmental Therapeutics Program. […] The stock solutions were prepared in dimethyl sulfoxide (DMSO, Sigma-Aldrich, St. Louis, MO, cat. D2650) at 800-fold the tested concentration and stored at -70 degrees C prior to their use. All drugs and investigational agents were tested over a range starting from a high concentration at or near the clinical Cmax and decreasing in half-log increments. If the clinical Cmax for an agent had not been determined, the highest concentration tested was 10 microM.
# Cell Culture. All cells were maintained in an incubator at 37 degrees C and 5% CO2 with 95% humidity. The PDC lines were cultured according to standard operating procedures established by the NCI PDMR. All PDCs were thawed and cultured in Matrigel-coated flasks prepared with a working solution of 1X Ham's F-12 nutrient mix, without supplementation (Invitrogen, Waltham, MA, cat. 11765054), 100 U/mL penicillin-streptomycin (Invitrogen, cat. 15140122), and 2.5% Matrigel (Corning Inc., Corning, NY, cat. 354248) for the first three passages. The 362531-283-R-J2-PDC and 782815-120-R-J1-PDC lines were cultured in 6C/Colon 1B media, which includes advanced DMEM/F-12 (Thermo Fisher Scientific, cat. 12634028), 10 mM HEPES (Thermo Fisher Scientific, cat. 15630080), 1X GlutaMAX supplement (Thermo Fisher Scientific, cat. 35050061), 0.1 mg/mL primocin (InvivoGen, San Diego, CA, cat. ant-pm-2), 10% defined fetal bovine serum, heat inactivated (HyClone Laboratories Inc., Logan, UT, cat. SH30070.03HI), 50% L-WRN conditioned media (ATCC, cat. CRL-3276), 1.25 mM N-Acetyl-L-cysteine (Sigma-Aldrich, cat. A9165), 10 mM nicotinamide (Sigma-Aldrich, cat. N0636), 1X B-27 supplement (Thermo Fisher Scientific, cat. 17504044), 1X N-2 supplement (Thermo Fisher Scientific, cat. 17502048), 50 ng/mL human EGF (Thermo Fisher Scientific, cat. PHG0311), and 10 microM Y-27632 dihydrochloride (Tocris Bioscience, cat. 1254). The K12877-001-R-J1-PDC line was cultured in 6I media, which includes all 6C/Colon 1B media plus 10 ng/mL human FGF-10 (PeproTech, cat. 100-26), 1 ng/mL human FGF-2 (PeproTech, cat. 100-18B), 1 µM prostaglandin E2 (Tocris Bioscience, cat. 2296), […] hydrocortisone (Sigma-Aldrich, cat. H4001), and […] bovine insulin (Sigma-Aldrich, cat. I6634). The K86415-001-R-J1-PDC line was cultured in 6D media, which includes all 6C/Colon 1B media components minus the L-WRN conditioned media. The 485176-168-R4-J1-PDC was cultured in PANC media, which includes all 6C/Colon 1B media plus 100 ng/mL human FGF-10 (PeproTech, cat. 100-26), 500 nM SB-431542 (Selleckchem, cat. S1067), and 10 nM gastrin (Tocris Bioscience, cat. 3006). […]
# [1] = second compound 0.0316 µM, first compound 0.0316 µM
# [2] = second compound 0.0316 µM, first compound 0.1 µM
# [3] = second compound 0.0316 µM, first compound 0.316 µM
# [4] = second compound 0.0316 µM, first compound 1 µM
# [5] = second compound 0.0316 µM, first compound 3.16 µM
# [6] = second compound 0.0316 µM, first compound 10 µM
# [7] = second compound 0.1 µM, first compound 0.0316 µM
# [8] = second compound 0.1 µM, first compound 0.1 µM
# [9] = second compound 0.1 µM, first compound 0.316 µM
# [10] = second compound 0.1 µM, first compound 1 µM
# [11] = second compound 0.1 µM, first compound 3.16 µM
# [12] = second compound 0.1 µM, first compound 10 µM
# [13] = second compound 0.316 µM, first compound 0.0316 µM
# [14] = second compound 0.316 µM, first compound 0.1 µM
# [15] = second compound 0.316 µM, first compound 0.316 µM
# [16] = second compound 0.316 µM, first compound 1 µM
# [17] = second compound 0.316 µM, first compound 3.16 µM
# [18] = second compound 0.316 µM, first compound 10 µM
# [19] = second compound 1 µM, first compound 0.0316 µM
# [20] = second compound 1 µM, first compound 0.1 µM
# [21] = second compound 1 µM, first compound 0.316 µM
# [22] = second compound 1 µM, first compound 1 µM
# [23] = second compound 1 µM, first compound 3.16 µM
# [24] = second compound 1 µM, first compound 10 µM
# [25] = second compound 3.16 µM, first compound 0.0316 µM
# [26] = second compound 3.16 µM, first compound 0.1 µM
# [27] = second compound 3.16 µM, first compound 0.316 µM
# [28] = second compound 3.16 µM, first compound 1 µM
# [29] = second compound 3.16 µM, first compound 3.16 µM
# [30] = second compound 3.16 µM, first compound 10 µM
# [31] = second compound 10 µM, first compound 0.0316 µM
# [32] = second compound 10 µM, first compound 0.1 µM
# [33] = second compound 10 µM, first compound 0.316 µM
# [34] = second compound 10 µM, first compound 1 µM
# [35] = second compound 10 µM, first compound 3.16 µM
# [36] = second compound 10 µM, first compound 10 µM
# 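Note: spheroids exposed to compounds for 7 days before readout.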
# 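Throughout, for viability, T/C: 100% = DMSO vehicle control viability.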
smiles,measurement,setting,value
CCC(CC)c1cc(NC2CCC(N)C2)n2nccc2n1 (stereo unspecified) + C#Cc1c(F)ccc2cc(O)cc(-c3ncc4c(N5CC6CCC(C5)N6)nc(OCC56CCCN5CC(F)C6)nc4c3F)c12,IC50,second compound 0.0316 µM,2.1 µM
same,IC50,second compound 0.1 µM,1.97 µM
same,IC50,second compound 0.316 µM,1.47 µM
same,IC50,second compound 1 µM,< 0.0316 µM
same,IC50,second compound 3.16 µM,< 0.0316 µM
same,IC50,second compound 10 µM,< 0.0316 µM
same,"viability, T/C",[1],96.6%
same,"viability, T/C",[2],82.6%
same,"viability, T/C",[3],91.4%
same,"viability, T/C",[4],90.5%
same,"viability, T/C",[5],19.2%
same,"viability, T/C",[6],36.7%
same,"viability, T/C",[7],96.1%
same,"viability, T/C",[8],79%
same,"viability, T/C",[9],78.5%
same,"viability, T/C",[10],84.1%
same,"viability, T/C",[11],20.8%
same,"viability, T/C",[12],31.4%
same,"viability, T/C",[13],60.9%
same,"viability, T/C",[14],83.7%
same,"viability, T/C",[15],59.5%
same,"viability, T/C",[16],63.1%
same,"viability, T/C",[17],18.4%
same,"viability, T/C",[18],29.7%
same,"viability, T/C",[19],40.1%
same,"viability, T/C",[20],40.1%
same,"viability, T/C",[21],41.4%
same,"viability, T/C",[22],46.2%
same,"viability, T/C",[23],18.7%
same,"viability, T/C",[24],32.7%
same,"viability, T/C",[25],31.5%
same,"viability, T/C",[26],33.1%
same,"viability, T/C",[27],37.6%
same,"viability, T/C",[28],35.8%
same,"viability, T/C",[29],15.3%
same,"viability, T/C",[30],34.3%
same,"viability, T/C",[31],23.2%
same,"viability, T/C",[32],25.9%
same,"viability, T/C",[33],27.2%
same,"viability, T/C",[34],25.6%
same,"viability, T/C",[35],11.4%
same,"viability, T/C",[36],25.6%
Cc1nc(N2CCC3(CC2)COC(C)C3N)c(CO)nc1Sc1ccnc(N)c1Cl (stereo unspecified) + C#Cc1c(F)ccc2cc(O)cc(-c3ncc4c(N5CC6CCC(C5)N6)nc(OCC56CCCN5CC(F)C6)nc4c3F)c12,IC50,second compound 0.0316 µM,< 0.0316 µM
same,IC50,second compound 0.1 µM,< 0.0316 µM
same,IC50,second compound 0.316 µM,< 0.0316 µM
same,IC50,second compound 1 µM,< 0.0316 µM
same,IC50,second compound 3.16 µM,< 0.0316 µM
same,IC50,second compound 10 µM,< 0.0316 µM
same,"viability, T/C",[1],50.4%
same,"viability, T/C",[2],42.5%
same,"viability, T/C",[3],37.8%
same,"viability, T/C",[4],33.5%
same,"viability, T/C",[5],34%
same,"viability, T/C",[6],36.8%
same,"viability, T/C",[7],42.8%
same,"viability, T/C",[8],37.8%
same,"viability, T/C",[9],33.1%
same,"viability, T/C",[10],31.7%
same,"viability, T/C",[11],33%
same,"viability, T/C",[12],35.4%
same,"viability, T/C",[13],37.8%
same,"viability, T/C",[14],34.2%
same,"viability, T/C",[15],35.7%
same,"viability, T/C",[16],29.1%
same,"viability, T/C",[17],32%
same,"viability, T/C",[18],31%
same,"viability, T/C",[19],30.2%
same,"viability, T/C",[20],32.4%
same,"viability, T/C",[21],29.9%
same,"viability, T/C",[22],27.9%
same,"viability, T/C",[23],30.5%
same,"viability, T/C",[24],32.3%
same,"viability, T/C",[25],28.8%
same,"viability, T/C",[26],29.1%
same,"viability, T/C",[27],25.7%
same,"viability, T/C",[28],23.1%
same,"viability, T/C",[29],25.1%
same,"viability, T/C",[30],26.2%
same,"viability, T/C",[31],20.1%
same,"viability, T/C",[32],21.4%
same,"viability, T/C",[33],19.9%
same,"viability, T/C",[34],19.6%
same,"viability, T/C",[35],21.3%
same,"viability, T/C",[36],20.8%
NC1c2ccccc2OC12CCN(c1cnc3c(N4CCCc5ncccc54)n[nH]c3n1)CC2 (stereo unspecified) + C#Cc1c(F)ccc2cc(O)cc(-c3ncc4c(N5CC6CCC(C5)N6)nc(OCC56CCCN5CC(F)C6)nc4c3F)c12,IC50,second compound 0.0316 µM,< 0.0316 µM
same,IC50,second compound 0.1 µM,< 0.0316 µM
same,IC50,second compound 0.316 µM,< 0.0316 µM
same,IC50,second compound 1 µM,< 0.0316 µM
same,IC50,second compound 3.16 µM,< 0.0316 µM
same,IC50,second compound 10 µM,< 0.0316 µM
same,"viability, T/C",[1],37.8%
same,"viability, T/C",[2],34.7%
same,"viability, T/C",[3],30.6%
same,"viability, T/C",[4],35.9%
same,"viability, T/C",[5],35.5%
same,"viability, T/C",[6],43%
same,"viability, T/C",[7],34.8%
same,"viability, T/C",[8],33%
same,"viability, T/C",[9],31.6%
same,"viability, T/C",[10],35.6%
same,"viability, T/C",[11],34.2%
same,"viability, T/C",[12],36.5%
same,"viability, T/C",[13],30.3%
same,"viability, T/C",[14],30.8%
same,"viability, T/C",[15],32.8%
same,"viability, T/C",[16],29.8%
same,"viability, T/C",[17],32%
same,"viability, T/C",[18],37%
same,"viability, T/C",[19],28.5%
same,"viability, T/C",[20],27.6%
same,"viability, T/C",[21],31.4%
same,"viability, T/C",[22],29.4%
same,"viability, T/C",[23],28.8%
same,"viability, T/C",[24],29.7%
same,"viability, T/C",[25],24.1%
same,"viability, T/C",[26],24%
same,"viability, T/C",[27],24.4%
same,"viability, T/C",[28],24.6%
same,"viability, T/C",[29],23.4%
same,"viability, T/C",[30],24.6%
same,"viability, T/C",[31],20.9%
same,"viability, T/C",[32],18.3%
same,"viability, T/C",[33],19.3%
same,"viability, T/C",[34],18.8%
same,"viability, T/C",[35],17.8%
same,"viability, T/C",[36],18.4%
